Measured values reported in patent US11130766B2, “Deuterated thienopiperidine derivatives, manufacturing method, and application thereof” (JIANGSU TASLY DIYI PHARMACEUTICAL CO., LTD., priority 2015, dated 2021).
Like-named read-outs stand apart in the source and are kept apart here. Marks after values point to notes of the source that are not given here.

Assays:
[1] = tested on: Rat Arteriovenous Thrombus Loop Model
Description: genus, strain: SD rat, • Provider: Slac • Weight: 250-350 g • Sex: male • Animal number: 30
Apparatus and Materials • Swab, dry tampon, alcohol pad, anerdian tampon. • Surgical scissor, ophthalmic forceps, hemostatic forceps, microsurgical scissor, microsurgical forceps, artery clamps. • 3-0 surgical suture, thick PE tube (I.D.*O.D.=1.14 mm*1.63 mm, 8 cm long), think PE tube (I.D.*O.D.=0.72 mm*1.22 mm, 6 cm long). • Surgical board, binding rope, timer, precise electronic balance, weighing paper. • Syringe, normal saline.
7. Experimental Method • After arrival, the animals were let adapt to the environment for 1 week and fasted for 16 hours prior to the test. • The arteriovenous blood loop circulation was started 2 h after oral administration of the test compounds and 4 h after oral administration of clopidogrel. • The rats were anesthetized with pentobarbital sodium (50 mg/kg, ip) 15 min before the arteriovenous blood loop circulation was started. • The left external jugular vein and the right carotid artery were separated and inserted with thin PE tubes respectively. • Two PE tubes were connected with another thick PE tube with a length of 8 cm to form a circulation passage. There's a 6 cm surgical suture (3-0) in the thick PE tube. • 15 min after the circulation passage was opened, the blood flow was blocked, the filament was taken out and weighed after the blood was sucked out. The thrombus weight was obtained after subtraction of the weight of the filament itself.

[2] = tested on: Rat Tail Bleeding Model
Method: genus, strain SD rat, • Provider: Slac • Weight: 250-350 g • Sex: male • Animal number: 30
Experimental Method: • The animals were allowed adapt to the environment after arrival for 1 week and fasted for 16 hours prior to the experiment. • The tail bleeding time started to be recorded 2 h after oral administration of the test compounds and 4 h after oral administration of clopidogrel. • The rats were anesthetized with pentobarbital sodium (50 mg/kg, ip) 10 min prior to the recording of the tail bleeding time, after the rat was completely anesthetized and reaching the detection time, the tail was cut at 1.3 mm from the rat tail-tip with a scissor and perpendicularly immerged into a saline at 37° C. Timing recording was not started until the blood flow appeared. • The timing recording was stopped when the bleeding time interval was longer than 20 seconds. The maximum observation time for the blood flow was set for 40 minutes. If it was longer than 40 minutes, the timing recording was stopped and the time was recorded as 40 minutes.

[3] = tested on: ADP induced platelet aggregation; assay: ADP induced platelet aggregation, maximum aggregation rate after administration to rats; type: in vivo, Wistar male rats; parameters: unit not given here; settings: 3 mg/kg
Method: Addition of small dose of ADP (concentration less than 0.9 μmol/L) into the platelet suspension could lead to rapid platelet aggregation, followed by quick disaggregation; if moderate dose of ADP (about 1.0 μmol/L) was added, then the second irreversible aggregation phase appeared not long after the end of the first aggregation phase and the disaggregation. The maximum aggregation rate of the irreversible aggregation phase was used to evaluate the effect of the test samples on the function of blood coagulation.
Animals: Wistar male rats, weighing 230-250 g, were purchased from Vital River Laboratory Animal Technology Co., Ltd.
Reagent: ADP, Sigma Corporation.
Test samples: 16 test samples were provided by the Tasly Group; referred to China patent application 201310428052.4 for manufacturing method of TSC-1˜4 and TSC-6˜9.
Dose of administration: the test samples were suspended with 0.25% CMC, administered 3 mg/kg weight, volume of administration: 2 mL.
2 Hours after administration, the rats were anesthetized with pentobarbital sodium, and blood was drawn from the abdominal aorta, anticoagulated with sodium citrate with a ratio of 1:9, and centrifuged to obtain the platelet-rich plasma and platelet-poor plasma, with the mixed ratio of the platelet-poor plasma to platelet-rich plasma=3:1.

[4] = tested on: esterase; settings: for sample test results (concentration) Mean / sample test results (concentration) Num. 1 / sample test results (concentration) Num. 2 / sample test results (concentration) Num. 3: rat whole blood, 37° C., 30 μg/mL
Method: The hydrolysis rates of formula TSD-6 and clopidogrel bisulfate in the rat whole blood were determined by employing the in vitro incubation method.
3 mL of the rat fresh whole blood was taken and placed in a glass test tube. 30 μg/mL of formula TSD-6 and clopidogrel bisulfate (prepared with saline) were added, with 3 parallel tests for each group. The test tubes were shocked at a constant temperature of 37° C., 100 μL of the mixture was taken out at fixed time points of 10 min, 20 min, 30 min, 40 min, 50 min, 60 min, 70 min, 80 min, 90 min, 100 min, 110 min, and 120 min, into which 900 μL of methanol was added to stop the reaction immediately, then 100 μL methanol/water (1:1, v/v) and 100 μL internal standard (diazepam, 100 ng/mL) were added sequentially. The mixture was centrifuged at 13000 rpm at low temperature for 10 min, the supernatant was transferred into another EP tube, and 20 μL of the supernatant was taken for sample injection.

[5] = tested on: esterase; assay: Esterase hydrolysis rates of TSD-8 and clopidogrel bisulfate, in vitro incubation in rat whole blood; type: in vitro ADME; parameters: sample test results (concentration) Num. 1 / sample test results (concentration) Num. 2 / sample test results (concentration) Num. 3 / sample test results (concentration) Mean: unit not given here; settings: for sample test results (concentration) Mean / sample test results (concentration) Num. 1 / sample test results (concentration) Num. 2 / sample test results (concentration) Num. 3: rat whole blood, 37° C., 30 μg/mL
[6] = SD rat, 1.0 mg/kg oral gavage, 2 h after administration, 15 min circulation
[7] = SD rat, 1.0 mg/kg oral gavage, 2 h after administration
[8] = ADP induced, rats, blood drawn 2 hours after administration

[2H]C([2H])([2H])OC(=O)[C@H](c1ccccc1Cl)N1CCc2sc(OC(C)=O)cc2C1 [I-1]
Thrombus [1, 6]: 25.6 mg | Tail Bleeding Time [2, 7]: 950 s

COC(=O)[C@H](c1ccccc1Cl)N1CCc2sc(OP(=O)(O)O)cc2C1 [TSC-6]
Thrombus (mg) [1, 6]: 31.4* mg | Maximum Platelet Aggregation Rate ([3]; rat, in vivo): 29.6 ± 5.33 | Tail Bleeding Time [2, 7]: 635 s

[2H]C([2H])([2H])OC(=O)[C@H](c1ccccc1Cl)N1CCc2sc(OP(=O)(OC)OC)cc2C1 [TSD-1]
Maximum Platelet Aggregation Rate [3, 8]: 35.6 ± 3.35

[2H]C([2H])([2H])OC(=O)[C@H](c1ccccc1Cl)N1CCc2sc(OP(=O)(OCC)OCC)cc2C1 [TSD-2]
Maximum Platelet Aggregation Rate [3, 8]: 32.7 ± 5.33

[2H]C([2H])([2H])OC(=O)[C@H](c1ccccc1Cl)N1CCc2sc(OP(=O)(OC(C)C)OC(C)C)cc2C1 [TSD-3]
Maximum Platelet Aggregation Rate [3, 8]: 28.4 ± 3.27

[2H]C([2H])([2H])OC(=O)[C@H](c1ccccc1Cl)N1CCc2sc(OP(=O)(Oc3ccccc3)Oc3ccccc3)cc2C1 [TSD-4]
Maximum Platelet Aggregation Rate [3, 8]: 36.2 ± 4.16

[2H]C([2H])([2H])OC(=O)[C@H](c1ccccc1Cl)N1CCc2sc(OP(=O)(O)O)cc2C1 [TSD-6]
Thrombus (mg) [1, 6]: 18.4* mg | weight of the thrombus formed ([1]; rat arteriovenous thrombus loop model, 1 mg/kg oral): much lower than that of the non-deuterated compound TSC-6 and analog I-1 | hydrolysis rate in the rat whole blood ([4]; compared with clopidogrel, FIG. 2): significantly slower than that of clopidogrel | sample test results (concentration) Mean ([4]; 10 min): 389.7 | sample test results (concentration) Num. 1 ([4]; 10 min): 486 | sample test results (concentration) Num. 2 ([4]; 10 min): 287 | sample test results (concentration) Num. 3 ([4]; 10 min): 396 | sample test results (concentration) Mean ([4]; 20 min): 315.3 | sample test results (concentration) Num. 1 ([4]; 20 min): 306 | sample test results (concentration) Num. 2 ([4]; 20 min): 345 | sample test results (concentration) Num. 3 ([4]; 20 min): 295 | sample test results (concentration) Mean ([4]; 30 min): 244.3 | sample test results (concentration) Num. 1 ([4]; 30 min): 246 | sample test results (concentration) Num. 2 ([4]; 30 min): 223 | sample test results (concentration) Num. 3 ([4]; 30 min): 264 | sample test results (concentration) Mean ([4]; 40 min): 217.7 | sample test results (concentration) Num. 1 ([4]; 40 min): 232 | sample test results (concentration) Num. 2 ([4]; 40 min): 213 | sample test results (concentration) Num. 3 ([4]; 40 min): 208 | sample test results (concentration) Mean ([4]; 50 min): 172.0 | sample test results (concentration) Num. 1 ([4]; 50 min): 196 | sample test results (concentration) Num. 2 ([4]; 50 min): 153 | sample test results (concentration) Num. 3 ([4]; 50 min): 167 | sample test results (concentration) Mean ([4]; 60 min): 132.3 | sample test results (concentration) Num. 1 ([4]; 60 min): 115 | sample test results (concentration) Num. 2 ([4]; 60 min): 134 | sample test results (concentration) Num. 3 ([4]; 60 min): 148 | sample test results (concentration) Mean ([4]; 90 min): 97.50 | sample test results (concentration) Num. 1 ([4]; 90 min): 85.3 | sample test results (concentration) Num. 2 ([4]; 90 min): 112 | sample test results (concentration) Num. 3 ([4]; 90 min): 95.2 | sample test results (concentration) Mean ([4]; 100 min): 72.57 | sample test results (concentration) Num. 1 ([4]; 100 min): 84.7 | sample test results (concentration) Num. 2 ([4]; 100 min): 71.8 | sample test results (concentration) Num. 3 ([4]; 100 min): 61.2 | sample test results (concentration) Mean ([4]; 110 min): 54.63 | sample test results (concentration) Num. 1 ([4]; 110 min): 48.1 | sample test results (concentration) Num. 2 ([4]; 110 min): 59.1 | sample test results (concentration) Num. 3 ([4]; 110 min): 56.7 | sample test results (concentration) Mean ([4]; 120 min): 25.83 | sample test results (concentration) Num. 1 ([4]; 120 min): 24.5 | sample test results (concentration) Num. 2 ([4]; 120 min): 28.4 | sample test results (concentration) Num. 3 ([4]; 120 min): 24.6 | Maximum Platelet Aggregation Rate ([3]; rat, in vivo): 17.4 ± 5.13 | Tail Bleeding Time (s) [2, 7]: 1331* s | anticoagulant effect (tail bleeding time) ([2]; rat tail bleeding model, 1 mg/kg oral): much better than that of the non-deuterated compound TSC-6 and analog I-1

[2H]C([2H])([2H])OC(=O)[C@H](c1ccccc1Cl)N1CCc2sc(OCOP(=O)(OC(C)(C)C)OC(C)(C)C)cc2C1 [TSD-7]
Maximum Platelet Aggregation Rate [3, 8]: 27.1 ± 6.21

[2H]C([2H])([2H])OC(=O)[C@H](c1ccccc1Cl)N1CCc2sc(OCOP(=O)(O)O)cc2C1 [TSD-8]
Maximum Platelet Aggregation Rate [3, 8]: 16.3 ± 4.16 | hydrolysis rate in the rat whole blood ([5]; compared with clopidogrel, FIG. 1): slower than that of clopidogrel | sample test results (concentration) Mean ([5]; 10 min): 391.50 | sample test results (concentration) Num. 1 ([5]; 10 min): 531 | sample test results (concentration) Num. 2 ([5]; 10 min): 252 | sample test results (concentration) Mean ([5]; 20 min): 290.00 | sample test results (concentration) Num. 1 ([5]; 20 min): 336 | sample test results (concentration) Num. 2 ([5]; 20 min): 242 | sample test results (concentration) Num. 3 ([5]; 20 min): 292 | sample test results (concentration) Mean ([5]; 30 min): 275.33 | sample test results (concentration) Num. 1 ([5]; 30 min): 255 | sample test results (concentration) Num. 2 ([5]; 30 min): 291 | sample test results (concentration) Num. 3 ([5]; 30 min): 280 | sample test results (concentration) Mean ([5]; 40 min): 223.00 | sample test results (concentration) Num. 1 ([5]; 40 min): 222 | sample test results (concentration) Num. 2 ([5]; 40 min): 219 | sample test results (concentration) Num. 3 ([5]; 40 min): 228 | sample test results (concentration) Mean ([5]; 50 min): 101.67 | sample test results (concentration) Num. 1 ([5]; 50 min): 112 | sample test results (concentration) Num. 2 ([5]; 50 min): 103 | sample test results (concentration) Num. 3 ([5]; 50 min): 90 | sample test results (concentration) Mean ([5]; 60 min): 112.00 | sample test results (concentration) Num. 1 ([5]; 60 min): 115 | sample test results (concentration) Num. 2 ([5]; 60 min): 123 | sample test results (concentration) Num. 3 ([5]; 60 min): 98 | sample test results (concentration) Mean ([5]; 90 min): 74.63 | sample test results (concentration) Num. 1 ([5]; 90 min): 76.3 | sample test results (concentration) Num. 2 ([5]; 90 min): 77.4 | sample test results (concentration) Num. 3 ([5]; 90 min): 70.2 | sample test results (concentration) Mean ([5]; 100 min): 55.40 | sample test results (concentration) Num. 1 ([5]; 100 min): 52.7 | sample test results (concentration) Num. 2 ([5]; 100 min): 63.2 | sample test results (concentration) Num. 3 ([5]; 100 min): 50.3 | sample test results (concentration) Mean ([5]; 110 min): 47.90 | sample test results (concentration) Num. 1 ([5]; 110 min): 45.7 | sample test results (concentration) Num. 2 ([5]; 110 min): 51.5 | sample test results (concentration) Num. 3 ([5]; 110 min): 46.5 | sample test results (concentration) Mean ([5]; 120 min): 34.90 | sample test results (concentration) Num. 1 ([5]; 120 min): 34.3 | sample test results (concentration) Num. 2 ([5]; 120 min): 38.7 | sample test results (concentration) Num. 3 ([5]; 120 min): 31.7

CC(=O)Oc1cc2c(s1)CCN(C(C(=O)C1CC1)c1ccccc1F)C2 (centres unmarked) [prasugrel, reference compound]
Maximum Platelet Aggregation Rate [3, 8]: 20.72 ± 8.84
